# Key:
# [1] = test system: HSP70; assay: HSP induction in A549 cells (northern blot, 35S-methionine pulse labeling, western blot); type: cell-based, human
# [2] = test system: influenza A virus, A/PR/8/34 (H1 N1) strain; assay: Weight loss in mouse PR8 infection model; type: in vivo, BALB/cN mice; details: GGA treated groups (oral every 12 hours for 3 weeks before infection) except the 75G-PR8 group; control weight loss reaching 30%
# Method: FIG. 1 indicates an improvement trend of clinical infection symptoms caused by administration of GGA in a mouse PR8 infection model according to the present invention. BALC/c mice that used in the present invention were randomly allotted into the following 4 groups: (1) Control group (n=30) is transnasally administered 2×10^5 PFU of A/PR/8/34; the GGA pre-treatment groups were orally administered GGA every 12 hours for 3 weeks in doses of: (2) 150 mg/kg (150G-PR8 group; n=30), (3) 75 mg/kg (75G-PR8 group; n=30), (4) 15 mg/kg (15G-PR8 group; n=30) and were infected with PR8 after 3 weeks in the same manner. The body weights of the mice were measured 1, 2, 3, 4, 7, and 10 days after infection;
# (§1) The virus used in the present invention was the influenza A virus, A/PR/8/34 (H1 N1) strain (hereinafter referred to “PR8”); the mice were 6-week old female SPF (specific pathogen-free) BALB/cN mice (Charles River Japan Co., Ltd.); and the cells were A549 cells derived from human alveolar epithelial cell.
# First, the aforementioned mice were raised in a cage for each 4 mice under clean conditions and allowed free access to sterilized feed and water. […]
# [3] = test system: influenza A virus, A/PR/8/34 (H1 N1) strain; type: cell-based; details: A549 cells
# [4] = test system: influenza A virus, A/PR/8/34 (H1 N1) strain; assay: Viral replication in the lungs of infected mice, plaque assay using MDCK; type: in vivo, BALB/cN mice
# Description: as §1
# (§2) The mice were randomly divided into the following 4 treatment groups, and tested: (1) Control group; intranasl infection with PR8 (2×10^5 PFU) (2) 150G-PR8; group; after administration of 150 mg/kg of GGA, infected with the same amount of PR8 in the same manner as the control group; (3) 75G-PR8 group; after administration of 75 mg/kg of GGA, infected with the same amount of PR8 in the same manner as the control group; (4) 15G-PR8 group; after administration of 15 mg/kg of GGA, infected with the same amount of PR8 in the same manner as the control group. The aforementioned group (1) refers to the control group, and groups (2) to (4) refer to the GGA treated group prior to infection. The GGA treated groups were orally administered GGA every 12 hours for 3 weeks.
# FIG. 2 indicates the effects of GGA on viral replication in the lungs of the mice of the various groups after infection by an influenza virus according to the present invention. Here, the assay of virus in the lung was conducted by plaque assay using MDCK.
# [5] = test system: HSP70; type: in vivo, BALB/c mice
# [6] = test system: viral nucleoprotein (NP) of PR8; assay: Viral nucleoprotein (NP) synthesis in the lungs of infected mice, Western blot and EIA; type: in vivo, BALB/cN mice; details: GGA treated groups compared with control group
# Description: as §1, §2
# FIG. 3 indicates the results of the effects of GGA on viral nucleoprotein (called “NP” hereinafter) synthesis in the lungs of the mice of the various groups after infection by an influenza virus according to the present invention. The amount of NP synthesis was measured with Western blot analysis. […]
# [7] = test system: M×A genes; assay: Expression of antiviral gene MxA in PR8-infected A549 cells, northern blot; type: cell-based, human
# Description: Studied next were the effects of GGA treatment on the expression of antiviral genes after infection by PR8, and the results are indicated in FIGS. 12 and 13. […] It should be noted that the GAPDH in FIG. 12 was used as a control in the same way as previously described in FIG. 5.
# [8] = test system: interferon-inducible double-stranded RNA activated protein kinase (PKR); assay: PKR mRNA expression in A549 cells, RT-PCR; type: cell-based, human; details: β-actin control
# Description: FIG. 13 indicates the results of using RT-PCR to assay the mRNA expression of interferon-inducible double-stranded RNA activated protein kinase (hereinafter referred to “PKR”), which has an antiviral action. […] It should be noted that β-actin in this diagram was used was a control.
# [9] = GGA treatment (+), pulse labeling
structure (smiles),measurement,setting,value
"CC(=O)CC/C=C(\C)CC/C=C(\C)CC/C=C(\C)CCC=C(C)C [GGA, 6, 10, 14, 18-tetramethyl-5,9, 13, 17-nonadecatetraen-2-one]",time of peak HSP70 expression after administering GGA,"[1]; A549 cells, western blot with HSP70 antibodies",6 h
same,expression of HSP70 mRNA in A549 cells,"[1]; northern blot, GAPDH control",induced in a concentration and time dependent manner
same,weight loss caused by PR8 infection,[2],almost no weight loss
same,HSP70 synthesis in the early period of infection,[3]; [9],enhancement of HSP70 synthesis was observed
same,time after infection at which NP synthesis began,[3]; [9],> 12 h
same,NP synthesis capacity compared to GGA treatment (−),"[3]; PR8 infection, pulse labeling",suppressed
same,"capacity to synthesize viral proteins of PR8 (HA, NP, M1, NS1)",[3]; compared to the control,notably suppressed
same,duration of HSP70 expression after PR8 infection,"[3]; densitometric analysis at 3, 6, 12, 24 hours",up to 12 hours
same,time after infection up to which expression of NP was prevented,[3]; western blot,up to 12 hours
same,time after infection at which virus was completely eliminated from the lungs,[4]; 75G-PR8 group (75 mg/kg GGA),4 days
same,time after infection at which virus was completely eliminated from the lungs,[4]; 150G-PR8 group (150 mg/kg GGA),3 days
same,growth of virus in the lungs,"[4]; GGA 150, 75, 15 mg/kg oral every 12 hours for 3 weeks before PR8 infection, vs control",suppressed in a GGA dose-dependent manner
same,amount of HSP70 mRNA expressed in the lungs after PR8 infection,"[5]; […], GAPDH control",dependent on the amount of GGA administered
same,"expression of HSP70 in the lungs, GGA alone","[5]; mouse, in vivo",induced in a dose dependent manner
same,"NP synthesis in the lungs, Western blot",[6],suppression of NP synthesis in a dose dependent manner
same,"capacity to synthesize NP after infection with PR8, EIA",[6],notably reduced
same,expression of M×A genes,"[7]; A549 cells after infection with PR8, GAPDH control",enhanced
same,expression of HSP mRNA after PR8 infection,"[7]; A549 cells after infection with PR8, northern blot",enhanced
same,expression of PKR mRNA,[8],enhanced expression

# Source: US7341988B2, “Method of treating influenza with geranyl-geranyl acetone” (Eisai R&D Management Co., Ltd., priority 2001, dated 2008)
